Measured values from ChEMBL document CHEMBL1811813, “Synthesis and cytotoxicity of the depsipeptides analogues of callipeltin B” (Bioorg Med Chem Lett, 2011).
Activity calls are given as the source filed them. No cut-off for these calls is given here. Positions of bridges follow the written chain, without caps; N, C: chain ends. Non-standard residues stand in square brackets, D forms with d. Residues, ends and D or L forms follow the SMILES beside them. *: point of attachment. X1 = C[C@@H](OC(C)(C)C)[C@H](NC(=O)[C@@H](NC(=O)[C@@H]1CCC(=O)N1)[C@@H](C)O*)C(=O)O; NHTrityl = c1ccc(C(N*)(c2ccccc2)c2ccccc2)cc1; Pbf = Cc1c(C)c(S(=O)(=O)*)c(C)c2c1OC(C)(C)C2; NMeQ = CN[C@@H](CCC(N)=O)C(=O)O; pGlu = O=C1CC[C@@H](C(=O)O)N1; NMeA = CN[C@@H](C)C(=O)O; Boc = CC(C)(C)OC(=O)*; tBu = CC(C)(C)*

What was measured:
Assay type in all cases: functional, cell-based
[1] = tested on: HeLa; test: Cytotoxicity against human HeLa cells assessed as protease release from damaged cell after at 4-1000 uM after 24 hrs by luminometry
[2] = tested on: HeLa; test: Cytotoxicity against human HeLa cells assessed as protease release from damaged cell at 4-100 uM after 24 hrs by luminometry
[3] = tested on: HeLa; test: Cytotoxicity against human HeLa cells after 24 hrs by luminometry

SMILES	Activity [2]	further results
Cc1c(C)c(S(=O)(=O)NC(=N)NCCC[C@H](NC(=O)[C@@H](NC(=O)[C@@H](NC(=O)[C@H](CCC(N)=O)NC(=O)OC(C)(C)C)[C@@H](C)O)[C@@H](C)OC(C)(C)C)C(=O)N[C@@H](CC(C)C)C(=O)N[C@@H](CCC(=O)NC(c2ccccc2)(c2ccccc2)c2ccccc2)C(=O)N[C@@H](Cc2ccc(OC(C)(C)C)cc2)C(=O)N[C@@H](C)C(=O)O)c(C)c2c1OC(C)(C)C2 (Boc-QTT(tBu)R(Pbf)LE(NHTrityl)Y(tBu)A-OH)		Activity [1]: inactive
Cc1c(C)c(S(=O)(=O)NC(=N)NCCC[C@@H]2NC(=O)[C@H]([C@@H](C)OC(C)(C)C)NC(=O)[C@@H](NC(=O)[C@@H](N)CCC(N)=O)[C@@H](C)OC(=O)[C@H](C)NC(=O)[C@H](Cc3ccc(OC(C)(C)C)cc3)NC(=O)[C@H](CCC(=O)NC(c3ccccc3)(c3ccccc3)c3ccccc3)NC(=O)[C@H](CC(C)C)NC2=O)c(C)c2c1OC(C)(C)C2 (H-QTT(tBu)R(Pbf)LE(NHTrityl)Y(tBu)A; ester 2-C)	inactive	
Cc1c(C)c(S(=O)(=O)NC(=N)NCCC[C@H](N)C(=O)N[C@@H](CC(C)C)C(=O)N[C@@H](CCC(=O)NC(c2ccccc2)(c2ccccc2)c2ccccc2)C(=O)N[C@@H](Cc2ccc(OC(C)(C)C)cc2)C(=O)N[C@@H](C)C(=O)O[C@H](C)[C@H](NC(=O)[C@@H]2CCC(=O)N2)C(=O)N[C@H](C(=O)O)[C@@H](C)OC(C)(C)C)c(C)c2c1OC(C)(C)C2 (H-R(Pbf)LE(NHTrityl)Y(tBu)A-X1)		IC50 [3]: 2260 µM
CC(C)C[C@@H]1NC(=O)[C@H](CCCNC(=N)N)NC(=O)[C@H]([C@@H](C)O)NC(=O)[C@@H](NC(=O)[C@@H]2CCC(=O)N2)[C@@H](C)OC(=O)[C@H](C)NC(=O)[C@H](Cc2ccc(O)cc2)NC(=O)[C@H](CCC(N)=O)NC1=O ([pGlu]TTRLQYA; ester 2-C)	inactive	
CC(C)C[C@@H]1NC(=O)[C@H](C)N(C)C(=O)[C@H]([C@@H](C)O)NC(=O)[C@@H](NC(=O)[C@@H]2CCC(=O)N2)[C@@H](C)OC(=O)[C@H](CCC(N)=O)NC(=O)[C@H](Cc2ccc(O)cc2)NC(=O)[C@H](CCCNC(=N)N)NC1=O ([pGlu]TT[NMeA]LRYQ; ester 2-C)	inactive	
CC(C)C[C@@H]1NC(=O)[C@H](C)N(C)C(=O)[C@H]([C@@H](C)O)NC(=O)[C@@H](NC(=O)[C@@H]2CCC(=O)N2)[C@@H](C)OC(=O)[C@H](CCC(N)=O)N(C)C(=O)[C@H](Cc2ccc(O)cc2)NC(=O)[C@H](CCCNC(=N)N)NC1=O ([pGlu]TT[NMeA]LRY[NMeQ]; ester 2-C)	inactive	
C=C(C)[C@H]1Cc2c(ccc3c2O[C@@H]2COc4cc(OC)c(OC)cc4[C@@H]2C3=O)O1 [ROTENONE]		IC50 [3]: 78 µM
